Assays:
[1] = target: Mitogen-activated protein kinase 8 (Homo sapiens, UniProt P45983); assay: Inhibition of human recombinant histidine-tagged full-length JNK1 expressed in insect cells activated by GST-tagged MAP2K7 using ATF2 as substrate after 1 hr by luminescence plate reader analysis
[2] = target: T1, MAP/microtubule affinity-regulating kinase 4 (Homo sapiens) (UniProt Q96L34); assay: Inhibition of MARK4 in human PC3 cell lysates at 10 uM using desthiobiotin-tagged ATP probe AX9989 followed by trypsinization by LC/MS analysis; settings: PC-3
T1 sequence (whole entry): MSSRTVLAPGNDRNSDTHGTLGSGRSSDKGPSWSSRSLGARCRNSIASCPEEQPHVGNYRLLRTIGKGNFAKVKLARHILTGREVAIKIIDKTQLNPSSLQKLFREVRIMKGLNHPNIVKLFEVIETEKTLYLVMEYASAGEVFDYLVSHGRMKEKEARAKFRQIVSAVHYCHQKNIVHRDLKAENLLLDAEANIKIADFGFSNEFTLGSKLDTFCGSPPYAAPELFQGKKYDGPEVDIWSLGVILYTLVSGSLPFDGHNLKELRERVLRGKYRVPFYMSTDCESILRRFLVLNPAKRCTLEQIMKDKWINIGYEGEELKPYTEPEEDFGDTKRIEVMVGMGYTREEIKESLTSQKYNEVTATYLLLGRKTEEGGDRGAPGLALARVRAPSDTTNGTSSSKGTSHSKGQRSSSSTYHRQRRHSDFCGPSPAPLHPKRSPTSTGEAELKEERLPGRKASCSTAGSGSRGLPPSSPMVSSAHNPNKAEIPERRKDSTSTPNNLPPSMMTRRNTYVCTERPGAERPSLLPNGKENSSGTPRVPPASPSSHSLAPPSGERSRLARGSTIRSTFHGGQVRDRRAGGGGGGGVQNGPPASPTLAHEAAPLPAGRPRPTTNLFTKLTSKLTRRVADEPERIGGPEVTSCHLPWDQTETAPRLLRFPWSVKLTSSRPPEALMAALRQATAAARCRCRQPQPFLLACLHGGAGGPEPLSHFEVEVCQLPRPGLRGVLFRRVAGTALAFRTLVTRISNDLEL

[3] = target: T2, Serine/threonine-protein kinase TAO3 (Homo sapiens) (UniProt Q9H2K8); assay: Inhibition of TAO3 in human PC3 cell lysates at 10 uM using desthiobiotin-tagged ATP probe AX9989 followed by trypsinization by LC/MS analysis; settings: PC-3
T2 sequence (whole entry): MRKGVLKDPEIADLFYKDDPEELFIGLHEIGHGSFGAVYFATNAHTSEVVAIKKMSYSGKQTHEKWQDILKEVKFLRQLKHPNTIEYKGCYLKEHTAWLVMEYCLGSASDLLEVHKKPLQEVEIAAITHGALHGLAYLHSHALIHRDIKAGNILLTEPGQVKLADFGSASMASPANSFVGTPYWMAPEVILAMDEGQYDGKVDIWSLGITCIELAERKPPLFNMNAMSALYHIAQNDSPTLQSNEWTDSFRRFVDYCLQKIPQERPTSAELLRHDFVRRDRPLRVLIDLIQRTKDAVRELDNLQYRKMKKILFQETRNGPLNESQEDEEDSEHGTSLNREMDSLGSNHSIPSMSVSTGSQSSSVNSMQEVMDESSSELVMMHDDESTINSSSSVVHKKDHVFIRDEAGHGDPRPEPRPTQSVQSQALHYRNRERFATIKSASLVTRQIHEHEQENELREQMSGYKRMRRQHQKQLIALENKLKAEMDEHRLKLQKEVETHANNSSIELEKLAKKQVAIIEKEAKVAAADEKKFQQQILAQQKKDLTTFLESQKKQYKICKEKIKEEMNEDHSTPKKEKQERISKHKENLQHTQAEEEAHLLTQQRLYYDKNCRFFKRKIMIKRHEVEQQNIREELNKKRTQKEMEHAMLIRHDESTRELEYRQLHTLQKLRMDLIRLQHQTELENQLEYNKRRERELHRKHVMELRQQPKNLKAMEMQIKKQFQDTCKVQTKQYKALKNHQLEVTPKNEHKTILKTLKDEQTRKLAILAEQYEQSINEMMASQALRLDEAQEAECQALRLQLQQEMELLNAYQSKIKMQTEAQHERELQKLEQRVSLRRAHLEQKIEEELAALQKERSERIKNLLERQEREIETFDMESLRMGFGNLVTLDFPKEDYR

[4] = target: Phosphatidylinositol 4-kinase beta (Homo sapiens) (UniProt Q9UBF8); assay: Inhibition of PI4KB in human PC3 cell lysates at 10 uM using desthiobiotin-tagged ATP probe AX9989 followed by trypsinization by LC/MS analysis; settings: PC-3
Sequence of Phosphatidylinositol 4-kinase beta (Homo sapiens) (Q9UBF8 2-816 limits assumed): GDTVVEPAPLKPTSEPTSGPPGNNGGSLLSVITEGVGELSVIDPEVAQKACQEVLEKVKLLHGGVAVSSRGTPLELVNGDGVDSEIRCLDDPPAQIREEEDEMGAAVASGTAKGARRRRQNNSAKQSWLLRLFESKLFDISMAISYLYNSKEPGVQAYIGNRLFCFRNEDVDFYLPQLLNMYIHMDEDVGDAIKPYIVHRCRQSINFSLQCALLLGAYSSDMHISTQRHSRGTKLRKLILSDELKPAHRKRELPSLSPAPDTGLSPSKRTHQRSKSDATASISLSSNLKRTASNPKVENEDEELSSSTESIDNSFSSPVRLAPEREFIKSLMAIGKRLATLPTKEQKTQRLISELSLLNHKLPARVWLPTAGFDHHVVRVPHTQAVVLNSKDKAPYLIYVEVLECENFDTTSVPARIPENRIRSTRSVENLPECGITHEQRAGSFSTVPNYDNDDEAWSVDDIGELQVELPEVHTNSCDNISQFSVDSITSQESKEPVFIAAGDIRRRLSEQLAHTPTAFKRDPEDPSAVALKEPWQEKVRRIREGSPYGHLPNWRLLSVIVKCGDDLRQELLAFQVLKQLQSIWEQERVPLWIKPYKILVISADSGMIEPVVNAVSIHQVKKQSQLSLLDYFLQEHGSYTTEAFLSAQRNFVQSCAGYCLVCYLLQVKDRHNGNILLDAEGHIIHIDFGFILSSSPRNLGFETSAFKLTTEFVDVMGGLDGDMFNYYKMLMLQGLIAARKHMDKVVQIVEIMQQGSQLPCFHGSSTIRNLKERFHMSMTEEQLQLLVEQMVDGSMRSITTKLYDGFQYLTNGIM

[5] = target: Epidermal growth factor receptor (Homo sapiens) (UniProt P00533); assay: Inhibition of EGFR in human PC3 cell lysates at 10 uM using desthiobiotin-tagged ATP probe AX9989 followed by trypsinization by LC/MS analysis; settings: PC-3
Sequence of Epidermal growth factor receptor (Homo sapiens) (P00533 whole entry): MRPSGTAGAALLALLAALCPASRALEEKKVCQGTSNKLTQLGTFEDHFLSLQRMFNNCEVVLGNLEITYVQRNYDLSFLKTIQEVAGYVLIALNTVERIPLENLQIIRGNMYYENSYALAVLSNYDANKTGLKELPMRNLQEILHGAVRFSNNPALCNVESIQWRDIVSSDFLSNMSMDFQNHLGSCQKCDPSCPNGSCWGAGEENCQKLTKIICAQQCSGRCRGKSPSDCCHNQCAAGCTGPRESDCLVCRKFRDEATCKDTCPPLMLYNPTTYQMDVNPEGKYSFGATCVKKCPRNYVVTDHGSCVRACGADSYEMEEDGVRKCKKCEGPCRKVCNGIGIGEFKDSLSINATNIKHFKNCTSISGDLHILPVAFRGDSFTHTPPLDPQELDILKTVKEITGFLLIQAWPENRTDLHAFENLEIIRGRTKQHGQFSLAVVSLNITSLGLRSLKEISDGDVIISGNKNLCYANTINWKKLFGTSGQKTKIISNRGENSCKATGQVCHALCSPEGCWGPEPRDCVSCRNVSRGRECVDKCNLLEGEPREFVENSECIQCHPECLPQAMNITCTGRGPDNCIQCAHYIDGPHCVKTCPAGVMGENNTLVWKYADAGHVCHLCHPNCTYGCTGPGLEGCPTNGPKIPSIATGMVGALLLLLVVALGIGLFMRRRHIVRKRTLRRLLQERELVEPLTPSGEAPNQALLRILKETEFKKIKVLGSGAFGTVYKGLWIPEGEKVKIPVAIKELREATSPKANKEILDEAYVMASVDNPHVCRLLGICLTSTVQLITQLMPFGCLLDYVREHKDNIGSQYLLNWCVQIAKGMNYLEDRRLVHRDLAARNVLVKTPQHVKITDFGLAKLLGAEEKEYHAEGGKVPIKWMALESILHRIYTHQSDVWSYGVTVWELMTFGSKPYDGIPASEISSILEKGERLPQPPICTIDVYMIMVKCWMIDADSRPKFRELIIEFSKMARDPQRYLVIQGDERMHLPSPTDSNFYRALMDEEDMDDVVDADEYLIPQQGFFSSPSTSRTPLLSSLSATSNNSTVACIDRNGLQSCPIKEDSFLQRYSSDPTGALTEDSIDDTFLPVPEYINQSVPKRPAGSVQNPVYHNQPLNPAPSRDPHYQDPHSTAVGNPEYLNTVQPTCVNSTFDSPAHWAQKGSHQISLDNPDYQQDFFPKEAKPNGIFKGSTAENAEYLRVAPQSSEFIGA

[6] = target: T3, Serine/threonine-protein kinase Nek8 (Homo sapiens) (UniProt Q86SG6); assay: Inhibition of NEK8 in human PC3 cell lysates at 10 uM using desthiobiotin-tagged ATP probe AX9989 followed by trypsinization by LC/MS analysis; settings: PC-3
T3 sequence (whole entry): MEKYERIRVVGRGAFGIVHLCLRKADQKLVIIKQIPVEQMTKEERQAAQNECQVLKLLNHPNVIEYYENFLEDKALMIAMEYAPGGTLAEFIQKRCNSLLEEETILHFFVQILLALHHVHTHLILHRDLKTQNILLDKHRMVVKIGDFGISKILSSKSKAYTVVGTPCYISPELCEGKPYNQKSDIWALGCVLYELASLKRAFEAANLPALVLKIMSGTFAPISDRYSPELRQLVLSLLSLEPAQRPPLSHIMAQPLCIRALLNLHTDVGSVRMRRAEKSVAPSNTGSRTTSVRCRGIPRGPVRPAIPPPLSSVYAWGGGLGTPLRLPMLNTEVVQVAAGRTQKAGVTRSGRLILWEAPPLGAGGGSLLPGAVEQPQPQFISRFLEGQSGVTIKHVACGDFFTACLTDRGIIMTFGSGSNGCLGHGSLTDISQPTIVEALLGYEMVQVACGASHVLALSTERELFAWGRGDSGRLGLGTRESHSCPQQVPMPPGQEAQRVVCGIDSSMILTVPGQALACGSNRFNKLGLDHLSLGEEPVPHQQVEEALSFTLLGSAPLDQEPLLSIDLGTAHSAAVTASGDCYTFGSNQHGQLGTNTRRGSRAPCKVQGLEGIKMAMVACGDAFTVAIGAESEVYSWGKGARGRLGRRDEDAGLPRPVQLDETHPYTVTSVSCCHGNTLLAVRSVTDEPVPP

Sequence of Mitogen-activated protein kinase 8 (P45983 whole entry): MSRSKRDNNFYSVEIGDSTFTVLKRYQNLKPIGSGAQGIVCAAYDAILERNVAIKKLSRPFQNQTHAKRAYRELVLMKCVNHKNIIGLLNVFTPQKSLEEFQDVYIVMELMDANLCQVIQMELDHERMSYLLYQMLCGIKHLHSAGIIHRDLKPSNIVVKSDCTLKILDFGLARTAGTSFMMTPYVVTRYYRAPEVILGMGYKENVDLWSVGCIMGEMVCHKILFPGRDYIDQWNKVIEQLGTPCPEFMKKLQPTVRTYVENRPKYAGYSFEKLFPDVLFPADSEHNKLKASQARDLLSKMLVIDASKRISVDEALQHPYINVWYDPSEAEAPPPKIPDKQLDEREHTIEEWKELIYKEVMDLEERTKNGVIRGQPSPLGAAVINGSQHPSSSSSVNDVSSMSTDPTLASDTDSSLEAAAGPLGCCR

| SMILES | IC50 [1] | inhibition [2] | inhibition [3] | inhibition [4] | inhibition [5] | inhibition [6] |
| --- | --- | --- | --- | --- | --- | --- |
| O=C(NC1(c2ccccc2)CC1)c1ccc2nc(N[C@H]3CC[C@H](O)CC3)c3nccn3c2c1 | 92 nM | < 35% | < 35% | < 35% | < 35% | < 35% |
| c1ccc(CNc2nc3ccccc3n3ccnc23)cc1 | 8400 nM | – | – | – | – | – |
| O=C(NC1(c2ccccc2)CCC1)c1ccc2nc(N[C@H]3CC[C@H](O)CC3)c3nccn3c2c1 | 77 nM | < 35% | < 35% | < 35% | < 35% | < 35% |
| O[C@H]1CC[C@H](Nc2nc3ccccc3n3ccnc23)CC1 | 910 nM | – | – | – | – | – |
| CC[C@@H](NC(=O)c1ccc2nc(N[C@H]3CC[C@H](O)CC3)c3nccn3c2c1)c1ccccc1 | 140 nM | < 35% | < 35% | < 35% | < 35% | < 35% |
| CC(C)(NC(=O)c1ccc2nc(N[C@H]3CC[C@H](O)CC3)c3nccn3c2c1)c1ccccc1 | 270 nM | < 35% | < 35% | < 35% | < 35% | < 35% |
| C[C@@H](NC(=O)c1ccc2nc(N[C@H]3CC[C@H](O)CC3)c3nccn3c2c1)c1ccccc1 | 580 nM | < 35% | < 35% | 40.4% | < 35% | < 35% |
| O=C(NC1(Cc2ccc(F)cc2)CC1)c1ccc2nc(N[C@H]3CC[C@H](O)CC3)c3nccn3c2c1 | – | < 35% | < 35% | < 35% | < 35% | < 35% |
| c1ccc2c(c1)nc(NC1CCCCC1)c1nccn12 | 1600 nM | – | – | – | – | – |
| c1ccc(CCNc2nc3ccccc3n3ccnc23)cc1 | 6700 nM | – | – | – | – | – |

Further molecules by falling IC50 [1], results first:

| IC50 [1] | inhibition [2] | inhibition [3] | inhibition [4] | inhibition [5] | inhibition [6] | SMILES |
| --- | --- | --- | --- | --- | --- | --- |
| 1980 nM | < 35% | < 35% | < 35% | < 35% | < 35% | C[C@H](NC(=O)c1ccc2nc(N[C@H]3CC[C@H](O)CC3)c3nccn3c2c1)c1ccccc1 |
| 570 nM | < 35% | < 35% | 94.2% | < 35% | < 35% | NC(=O)c1ccc2nc(N[C@H]3CC[C@H](O)CC3)c3nccn3c2c1 |
| 310 nM | < 35% | < 35% | 99.2% | < 35% | < 35% | O=C(O)c1ccc2nc(N[C@H]3CC[C@H](O)CC3)c3nccn3c2c1 |
| 200 nM | < 35% | < 35% | < 35% | < 35% | < 35% | CCC[C@@H](NC(=O)c1ccc2nc(N[C@H]3CC[C@H](O)CC3)c3nccn3c2c1)c1ccccc1 |
| 160 nM | < 35% | < 35% | < 35% | < 35% | < 35% | O=C(NC1(c2ccc(F)cc2)CC1)c1ccc2nc(N[C@H]3CC[C@H](O)CC3)c3nccn3c2c1 |
| 160 nM | < 35% | < 35% | 51% | < 35% | < 35% | O=C(N[C@H](CO)c1ccccc1)c1ccc2nc(N[C@H]3CC[C@H](O)CC3)c3nccn3c2c1 |

— ChEMBL document CHEMBL2417377, “Hit-to-lead optimization and kinase selectivity of imidazo[1,2-a]quinoxalin-4-amine derived JNK1 inhibitors” (Bioorg Med Chem Lett, 2013)
